The values below come from publication PMC11579929, “Proline-Modified RWn Peptides: Enhanced Antifungal Efficacy and Synergy with Conventional Antibiotics for Combating Resistant Fungal Infections” (ACS Omega, 2024).

One series relates to C. albicans [ATCC 90028]. The series can be described thus: microbe, parasite or virus in culture. Format: cell-based, Candida albicans. Particulars: for MIC: Candida albicans.
For series [1], the system named is C. neoformans [ATCC 208821]. In words: microbe, parasite or virus in culture. It counts as cell-based, Cryptococcus neoformans. Particulars: for MIC: Cryptococcus neoformans.
A short description of a further series: Cytotoxicity assay. It counts as cell-based. Particulars: human, HEK293 cells. The method, then:
(§1) The antifungal activities were evaluated by determining the minimum inhibitory concentration (MIC) against C. albicans [ATCC 90028] and C. neoformans [ATCC 208821] that inhibits 99% fungal growth. Cytotoxicity and hemolytic activities were assessed against human embryonic kidney (HEK293) cells and human red blood cells, respectively. The antimicrobial screening was performed by The Community for Antimicrobial Drug Discovery (CO-ADD).[31] Cytotoxicity assays were performed on active compounds to assess their selectivity toward microbial cells. The protocol for the cytotoxicity assay is described in the Supporting Information.[28]

In the next series the test system is human red blood cells. The series can be described thus: Hemolytic activity. The settings on record: for Hemolytic Toxicity (<32 mg/mL): yes/no below as printed. It counts as cell-based. The method, then: The antifungal activities were evaluated by determining the minimum inhibitory concentration (MIC) against C. albicans [ATCC 90028] and C. neoformans [ATCC 208821] that inhibits 99% fungal growth. Cytotoxicity and hemolytic activities were assessed against human embryonic kidney (HEK293) cells and human red blood cells, respectively. The antimicrobial screening was performed by The Community for Antimicrobial Drug Discovery (CO-ADD).[31]

The subject of another series is HEK293 and RBC. In words: Toxicity (HEK293 and RBC), stated jointly. Format: cell-based, human. The method, then:
as §1

Converted amounts (≈) assume the structure as drawn. Read-outs that look alike come from different tables or passages of the source. Where no end group is shown, it is not given here. Bounds are passed on as bounds.

For the compound `CC1(C)S[C@@H]2[C@H](NC(=O)[C@H](N)c3ccccc3)C(=O)N2[C@H]1C(=O)O` [AMP, ampicillin, reference compound], the MIC in the series with C. albicans [ATCC 90028] (ATCC90028, antibiotic alone or 4.75 mg antibiotic mixed with 0.25 mg of peptide, read-out: C. albicans MIC) was more than 32 µg/mL; in series [1] (ATCC208821, antibiotic alone or 4.75 mg antibiotic mixed with 0.25 mg of peptide, read-out: C. neoformans MIC), more than 32 µg/mL.
Consider `OC(Cn1cncn1)(Cn1cncn1)c1ccc(F)cc1F` [Fluconazole, reference compound], for which the MIC in the series with C. albicans [ATCC 90028] (ATCC90028, BMD method, YNB, 384 NBS plates, average of ≥ 6 independent biological replicates, antifungal standard, read-out: MIC Candida albicans ATCC 90028) turned out to be 0.125 µg/mL (≈ 0.408 µM); in series [1] (ATCC208821, BMD method, YNB, 384 NBS plates, average of ≥ 6 independent biological replicates, antifungal standard, read-out: MIC Cryptococcus neoformans H99 ATCC 208821) it was 8 µg/mL (≈ 26.1 µM).
In the case of `CC[C@H](C)[C@H](N)C(=O)N[C@@H](CC(C)C)C(=O)N1CCC[C@H]1C(=O)N[C@@H](Cc1c[nH]c2ccccc12)C(=O)N[C@@H](CCCCN)C(=O)N[C@@H](Cc1c[nH]c2ccccc12)C(=O)N1CCC[C@H]1C(=O)N[C@@H](Cc1c[nH]c2ccccc12)C(=O)N[C@@H](Cc1c[nH]c2ccccc12)C(=O)N1CCC[C@H]1C(=O)N[C@@H](Cc1c[nH]c2ccccc12)C(=O)N[C@@H](CCCNC(=N)N)C(=O)N[C@@H](CCCNC(=N)N)C(N)=O` [Indolicidin, reference compound], the “C. albicans MIC” value with C. albicans [ATCC 90028] (ATCC 90028, concentration that inhibits 99% fungal growth, peptide alone) is more than 32 µg/mL. In addition, the “C. neoformans MIC” value in series [1] (ATCC 208821, concentration that inhibits 99% fungal growth, peptide alone) was more than 32 µg/mL. In addition, in “Cytotoxicity assay” (Table 2, read-out: HEK293 Toxicity), the CC50 was more than 32 µg/mL. Further, the “Hemolytic Activity” value in the series on human red blood cells (Table 2, human red blood cells) is more than 32 µg/mL. The “Hemolytic Toxicity (<32 mg/mL)” value in the series with human red blood cells is listed as “No”.
For the compound `N=C(N)NCCC[C@H](NC(=O)[C@H](Cc1c[nH]c2ccccc12)NC(=O)[C@H](CCCNC(=N)N)NC(=O)[C@H](Cc1c[nH]c2ccccc12)NC(=O)[C@H](CCCNC(=N)N)NC(=O)[C@H](Cc1c[nH]c2ccccc12)NC(=O)[C@H](CCCNC(=N)N)NC(=O)[C@H](Cc1c[nH]c2ccccc12)NC(=O)[C@H](CCCNC(=N)N)NC(=O)[C@H](Cc1c[nH]c2ccccc12)NC(=O)[C@@H](N)CCCNC(=N)N)C(=O)N[C@@H](Cc1c[nH]c2ccccc12)C(N)=O` [RW6, (RW)6-NH2], in the series with C. albicans [ATCC 90028] (ATCC 90028, 3 h), the “C. albicans MIC” value was determined as 8 µg/mL. Further, the CC50 in the series “Cytotoxicity assay” is more than 32 µg/mL. In the series with human red blood cells (Table 2, human red blood cells), the “Hemolytic Activity” value was not above 0.25 µg/mL. In addition, the “Hemolytic Toxicity (<32 mg/mL)” value in the series with human red blood cells was “Yes”.
With `CN[C@H](CC(C)C)C(=O)N[C@H]1C(=O)N[C@@H](CC(N)=O)C(=O)N[C@H]2C(=O)N[C@H]3C(=O)N[C@H](C(=O)N[C@H](C(=O)O)c4cc(O)cc(O)c4-c4cc3ccc4O)[C@H](O)c3ccc(c(Cl)c3)Oc3cc2cc(c3O[C@@H]2O[C@H](CO)[C@@H](O)[C@H](O)[C@H]2O[C@H]2C[C@](C)(N)[C@H](O)[C@H](C)O2)Oc2ccc(cc2Cl)[C@H]1O` [VAN, vancomycin, reference compound], the MIC with C. albicans [ATCC 90028] (ATCC90028, read-out: C. albicans MIC) was more than 32 µg/mL; in series [1] (ATCC208821, read-out: C. neoformans MIC), more than 32 µg/mL.
Consider RWRWPRWRW-NH2 [RW4P], for which the “C. albicans MIC” value in the series with C. albicans [ATCC 90028] (ATCC 90028, 3 h) was more than 32 µg/mL. In series [1] (ATCC 208821, 3 h), the “C. neoformans MIC” value is not above 0.25 µg/mL. In the series “Cytotoxicity assay”, the CC50 is more than 32 µg/mL. Further, the “Hemolytic Activity” value with human red blood cells (Table 3, unit not given) is listed as more than 32.
Take RWRWPRWRWPRWRW-NH2 [RW6–2P]: in the series “Cytotoxicity assay”, the CC50 was more than 32 µg/mL. For the same compound, the “Hemolytic Activity” value in the series on human red blood cells (Table 3, unit not given) is listed as more than 32. Also, in the series with HEK293 and RBC, the “Toxicity in HEK293 or red blood cells (in words)” value was “without any detectable toxicity”.
The matching figures for RWRWRWPRWRWRW-NH2 [RW6P]: more than 32 µg/mL, more than 32 and “without observable toxicity”.
With RWRWRWRW-NH2 [RW4, (RW)4-NH2], in the series “Cytotoxicity assay”, the CC50 was more than 32 µg/mL. In the series with human red blood cells (Table 2, human red blood cells), the “Hemolytic Activity” value was more than 32 µg/mL. The “Hemolytic Toxicity (<32 mg/mL)” value with human red blood cells is on record as “No”.
Regarding RWRWRWRWPRWRWRWRW-NH2 [RW8P], in the series with C. albicans [ATCC 90028] (ATCC 90028, 3 h), the “C. albicans MIC” value is more than 32 µg/mL. Also, the “C. neoformans MIC” value in series [1] (ATCC 208821, 3 h) is not above 0.25 µg/mL. Besides, in “Cytotoxicity assay”, the CC50 is more than 32 µg/mL. In addition, the “Hemolytic Activity” value with human red blood cells (Table 3, unit not given) was more than 32.
On to RWRWRWRWRWRWRWRW-NH2 [RW8, (RW)8-NH2], for which, in the series on C. albicans [ATCC 90028] (ATCC 90028, 3 h), the “C. albicans MIC” value worked out at 32 µg/mL. Besides, in series [1] (ATCC 208821, 3 h), the “C. neoformans MIC” value is 0.5 µg/mL. The same compound showed a CC50 in the series “Cytotoxicity assay” of more than 32 µg/mL. In the series with human red blood cells (Table 2, human red blood cells), the “Hemolytic Activity” value stood at 0.452 µg/mL. The “Hemolytic Toxicity (<32 mg/mL)” value with human red blood cells is given as “Yes”.
